According to patent US20210308077A1, “COMBINATIONS INCLUDING BETA-ADRENORECEPTOR AGONISTS FOR TREATMENT OF PARKINSON`S DISEASE AND MOVEMENT DISORDERS” (The Brigham and Women`s Hospital, Inc., priority 2017, published 2021):

How the values were obtained:
[1] = system: α-synuclein protein and mRNA in substantia nigra; experiment: placebo-controlled trial in wild-type mice, Snca expression in substantia nigra; format: in vivo, mouse
Method: Twenty C57BL/6J male mice (8 weeks old) (Jackson Laboratory, Bar Harbor Me.) were used for the placebo-controlled trial. Mice were exposed to a 12-hour light and 12-hour dark cycle, maintained at a constant temperature of 22° C., and were cared for in accordance with the National Institutes of Health Guide for the Care and Use of Laboratory Animals. Clenbuterol was purchased from Sigma (St. Louis, Mo.). Clenbuterol (10 mg/kg, injection volume 10 ml/kg) dissolved in saline was administered to mice (N=10) intraperitoneally. Saline was administered as a vehicle treatment (N=10). Mice were euthanized by CO224 hours post-injection. Brains were removed and snap frozen immediately in dry ice. Further dissections were performed on the frozen tissue to obtain substantia nigra regions. Tissue was then stored at −80° C. until mRNA or protein extraction was performed.
Total RNA from flash-frozen mice brain tissue, rodent primary cells, human neuroblastoma cells and iPSC-derived neuronal cells was isolated using TRIzol® (Life Technologies) following the manufacturer's protocol. RNA concentration was measured using NanoDrop spectrophotometer (Thermo Fisher Scientific, Wilmington, De.). 2 μg of total RNA was reverse transcribed into cDNA using the High Capacity cDNA Reverse Transcription Kit from Applied Biosystems. Quantitative PCR was performed using TaqMan Universal PCR Master Mix (Applied Biosystems) on an ABI 7900HT instrument (Applied Biosystems) as described previously (31). […] Expression values were analyzed using the comparative threshold cycle method (31).
Protein lysis buffer containing 320 mM sucrose, 5 mM NaF, 1 mM Na3VO4, 10 mM Tris (pH 7.4), 1 mM EGTA, and 1 mM EDTA was used for mice brain tissue lysis. […] Total protein concentrations were determined by BCA assay (Thermo Scientific) according to the manufacturer's instructions. Total α-synuclein was quantified using an α-synuclein-specific sandwich ELISA. […]

[2] = system: α-synuclein protein and mRNA in substantia nigra; experiment: Snca expression in substantia nigra, dose-finding mouse trial; format: in vivo; conditions: 10 mg/kg intraperitoneal, 24 hours, P<0.05
Method: The clenbuterol pharmacokinetic (PK) study was done in wild-type C57BL/6J male mice by ChemPartner Co., LTD in Shanghai. The study was done with 4 groups of four mice; one control group and three treatment groups with clenbuterol administered via intraperitoneal injection at dosages of 1, 5 and 10 mg/kg once every 24 hours. Following completion of the administration schedule, blood samples were collected at various time points (e.g. 0.25, 2, 8, and 24 hours), from the four mice per group per time point (final time point of 24 hours post injection). Mice were sacrificed following each blood collection and brains were removed and snap frozen. […] Plasma and brain samples were analyzed by LC-MS/MS for compound concentration at each of three concentrations and at each time point. Standard pharmacokinetic parameters (e.g. AUClast, AUCINF, terminal elimination half-life (t1/2), clearance, volume of distribution, time at maximum observed plasma concentration, etc.) were determined in both plasma and brain tissueby WinNonlin V 6.2 statistics software (Pharsight Corporation, California, USA) using a non-compartmental model. […]
Protein lysis buffer containing 320 mM sucrose, 5 mM NaF, 1 mM Na3VO4, 10 mM Tris (pH 7.4), 1 mM EGTA, and 1 mM EDTA was used for mice brain tissue lysis. […] Total protein concentrations were determined by BCA assay (Thermo Scientific) according to the manufacturer's instructions. […]

[3] = 10 mg/kg intraperitoneal, 24 hours, vs saline, n=10 per group

SMILES: CC(C)(C)NCC(O)c1cc(Cl)c(N)c(Cl)c1 (centres unmarked) [clenbuterol]
- endogenous α-synuclein mRNA in substantia nigra [1, 3]: lowered
- endogenous α-synuclein protein in substantia nigra [1, 3]: lowered
- α-synuclein protein in substantia nigra by Western blotting ([1]; anti-α-synuclein antibodies 2F12 and C-20): confirmed by Western blotting
- nigral α-synuclein mRNA levels [2]: significant reduction
- nigral α-synuclein protein levels [2]: significant reduction
